Assay results from US9695155B2, “Herbicidal substituted pyrimidinyloxy benzene compounds” (E. I. DU PONT DE NEMOURS AND COMPANY, priority 2013, dated 2017).

Experiments:
[1] = test system: speedwell; assay: Test D preemergence; assay type: in vivo, Veronica persica; settings: Veronica persica, pre-emergence
In short: (§1)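 Visual ratings from 0 (no effect) to 100 (complete control) relative to untreated plants were taken 7–21 days after treatment. Chemicals in a surfactant-containing solvent mixture were applied preemergence to seeds in silt loam, or postemergence to plants 2–18 cm tall (1–4 leaves) grown in a peat-based potting medium.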

[2] = test system: blackgrass; assay: Test D preemergence; assay type: in vivo, Alopecurus myosuroides; settings: Alopecurus myosuroides, pre-emergence
In short: as §1

[3] = test system: Italian ryegrass; assay: Test D preemergence; assay type: in vivo, Lolium multiflorum; settings: Lolium multiflorum, pre-emergence
In short: as §1

[4] = test system: wild oat; assay: Test D postemergence; assay type: in vivo, Avena fatua; settings: Avena fatua, post-emergence
In short: as §1

[5] = test system: lambsquarters; assay: Test D preemergence; assay type: in vivo, Chenopodium album; settings: Chenopodium album, pre-emergence
In short: as §1

[6] = test system: pigweed; assay: Test D preemergence; assay type: in vivo, Amaranthus retroflexus; settings: Amaranthus retroflexus, pre-emergence
In short: as §1

[7] = test system: sandbur; assay: Test E postemergence; assay type: in vivo, Cenchrus echinatus; settings: Cenchrus echinatus, post-emergence, read-out: Plant response rating, Sandbur
In short: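 Response was scored visually on a 0-100 scale (100 = complete control) versus controls after 14 to 21 days in the greenhouse. Test chemicals, formulated with surfactant in a non-phytotoxic solvent mixture, had been applied preemergence to seeds in silt loam soil or postemergence to 1- to 4-leaf plants in potting medium.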

[8] = test system: pigweed; assay: Test D postemergence; assay type: in vivo, Amaranthus retroflexus; settings: Amaranthus retroflexus, post-emergence
In short: as §1

[9] = test system: chickweed; assay: Test D postemergence; assay type: in vivo, Stellaria media; settings: Stellaria media, post-emergence
In short: as §1

[10] = test system: canarygrass; assay: Test D postemergence; assay type: in vivo, Phalaris minor; settings: Phalaris minor, post-emergence
In short: as §1

[11] = test system: blackgrass; assay: Test D postemergence; assay type: in vivo, Alopecurus myosuroides; settings: Alopecurus myosuroides, post-emergence, Postemergence, scale 0 to 100 (0 no effect, 100 complete control), read-out: Plant response rating, Blackgrass
In short: as §1

[12] = test system: oilseed rape; assay: Test D preemergence; assay type: in vivo, Brassica napus; settings: Brassica napus, pre-emergence
In short: as §1

Clc1cnc(Oc2ccccc2-n2cc(Br)cn2)nc1 [Compound 7, 2-[2-(4-bromo-1H-pyrazol-1-yl)phenoxy]-5-chloropyrimidine]
pest or weed control at 16 g/ha ([1]; 16 g ai/ha, scale 0 (no effect) to 100 (complete control), read-out: Plant response rating, Speedwell): 20% | pest or weed control at 31 g/ha ([1]; 31 g ai/ha, scale 0 (no effect) to 100 (complete control), read-out: Plant response rating, Speedwell): 50% | pest or weed control at 62 g/ha ([1]; 62 g ai/ha, scale 0-100, read-out: Plant response rating, Speedwell): 100% | pest or weed control at 125 g/ha ([1]; 125 g ai/ha, scale 0-100, read-out: Plant response rating, Speedwell): 100% | pest or weed control at 250 g/ha ([1]; 250 g ai/ha, scale 0-100, read-out: Plant response rating, Speedwell): 100% | pest or weed control at 16 g/ha ([2]; 16 g ai/ha, scale 0 (no effect) to 100 (complete control), read-out: Plant response rating, Blackgrass): 0% | pest or weed control at 31 g/ha ([2]; 31 g ai/ha, scale 0-100, read-out: Plant response rating, Blackgrass): 0% | pest or weed control at 62 g/ha ([2]; 62 g ai/ha, scale 0-100, read-out: Plant response rating, Blackgrass): 0% | pest or weed control at 125 g/ha ([2]; 125 g ai/ha, scale 0-100, read-out: Plant response rating, Blackgrass): 0% | pest or weed control at 250 g/ha ([2]; 250 g ai/ha, scale 0-100, read-out: Plant response rating, Blackgrass): 15% | pest or weed control at 16 g/ha ([3]; 16 g ai/ha, scale 0 (no effect) to 100 (complete control), read-out: Plant response rating, Ryegrass, Italian): 0% | pest or weed control at 31 g/ha ([3]; 31 g ai/ha, scale 0 (no effect) to 100 (complete control), read-out: Plant response rating, Ryegrass, Italian): 0% | pest or weed control at 62 g/ha ([3]; 62 g ai/ha, scale 0-100, read-out: Plant response rating, Ryegrass, Italian): 0% | pest or weed control at 125 g/ha ([3]; 125 g ai/ha, scale 0-100, read-out: Plant response rating, Ryegrass, Italian): 0% | pest or weed control at 250 g/ha ([3]; 250 g ai/ha, scale 0-100, read-out: Plant response rating, Ryegrass, Italian): 5% | pest or weed control at 16 g/ha ([4]; 16 g ai/ha, scale 0-100, read-out: Plant response rating, Oat, Wild): 0% | pest or weed control at 31 g/ha ([4]; 31 g ai/ha, scale 0 to 100 (0 no effect, 100 complete control), read-out: Plant response rating, Oat, Wild): 0% | pest or weed control at 62 g/ha ([4]; 62 g ai/ha, scale 0 to 100 (0 no effect, 100 complete control), read-out: Plant response rating, Oat, Wild): 0% | pest or weed control at 125 g/ha ([4]; 125 g ai/ha, scale 0 to 100 (0 no effect, 100 complete control), read-out: Plant response rating, Oat, Wild): 10% | pest or weed control at 250 g/ha ([4]; 250 g ai/ha, scale 0 to 100 (0 no effect, 100 complete control), read-out: Plant response rating, Oat, Wild): 25% | pest or weed control at 16 g/ha ([5]; 16 g ai/ha, scale 0 (no effect) to 100 (complete control), read-out: Plant response rating, Lambsquarters): 0% | pest or weed control at 31 g/ha ([5]; 31 g ai/ha, scale 0-100, read-out: Plant response rating, Lambsquarters): 0% | pest or weed control at 62 g/ha ([5]; 62 g ai/ha, scale 0-100, read-out: Plant response rating, Lambsquarters): 30% | pest or weed control at 125 g/ha ([5]; 125 g ai/ha, scale 0-100, read-out: Plant response rating, Lambsquarters): 40% | pest or weed control at 250 g/ha ([5]; 250 g ai/ha, scale 0-100, read-out: Plant response rating, Lambsquarters): 60% | pest or weed control at 16 g/ha ([6]; 16 g ai/ha, scale 0 (no effect) to 100 (complete control), read-out: Plant response rating, Pigweed): 0% | pest or weed control at 31 g/ha ([6]; 31 g ai/ha, scale 0 (no effect) to 100 (complete control), read-out: Plant response rating, Pigweed): 30% | pest or weed control at 62 g/ha ([6]; 62 g ai/ha, scale 0-100, read-out: Plant response rating, Pigweed): 90% | pest or weed control at 125 g/ha ([6]; 125 g ai/ha, scale 0-100, read-out: Plant response rating, Pigweed): 90% | pest or weed control at 250 g/ha ([6]; 250 g ai/ha, scale 0-100, read-out: Plant response rating, Pigweed): 90% | pest or weed control at 31 g/ha ([7]; Postemergence, 31 g ai/ha, scale 0 to 100): 0% | pest or weed control at 62 g/ha ([7]; Postemergence, 62 g ai/ha, scale 0 to 100): 0% | pest or weed control at 125 g/ha ([7]; Postemergence, 125 g ai/ha, scale 0 to 100): 0% | pest or weed control at 8 g/ha ([7]; postemergence, 8 g ai/ha, scale 0 to 100, 0 no effect, 100 complete control): 0% | pest or weed control at 16 g/ha ([7]; postemergence, 16 g ai/ha, scale 0 to 100, 0 no effect, 100 complete control): 0% | pest or weed control at 16 g/ha ([8]; 16 g ai/ha, scale 0-100, read-out: Plant response rating, Pigweed): 70% | pest or weed control at 31 g/ha ([8]; 31 g ai/ha, scale 0 to 100 (0 no effect, 100 complete control), read-out: Plant response rating, Pigweed): 90% | pest or weed control at 62 g/ha ([8]; 62 g ai/ha, scale 0 to 100 (0 no effect, 100 complete control), read-out: Plant response rating, Pigweed): 100% | pest or weed control at 125 g/ha ([8]; 125 g ai/ha, scale 0 to 100 (0 no effect, 100 complete control), read-out: Plant response rating, Pigweed): 100% | pest or weed control at 250 g/ha ([8]; 250 g ai/ha, scale 0 to 100 (0 no effect, 100 complete control), read-out: Plant response rating, Pigweed): 100% | pest or weed control at 16 g/ha ([9]; 16 g ai/ha, scale 0-100, read-out: Plant response rating, Chickweed): 10% | pest or weed control at 31 g/ha ([9]; 31 g ai/ha, scale 0 to 100 (0 no effect, 100 complete control), read-out: Plant response rating, Chickweed): 10% | pest or weed control at 62 g/ha ([9]; 62 g ai/ha, scale 0 to 100 (0 no effect, 100 complete control), read-out: Plant response rating, Chickweed): 20% | pest or weed control at 125 g/ha ([9]; 125 g ai/ha, scale 0 to 100 (0 no effect, 100 complete control), read-out: Plant response rating, Chickweed): 60% | pest or weed control at 250 g/ha ([9]; 250 g ai/ha, scale 0 to 100 (0 no effect, 100 complete control), read-out: Plant response rating, Chickweed): 80% | pest or weed control at 16 g/ha ([10]; 16 g ai/ha, scale 0-100, read-out: Plant response rating, Canarygrass): 0% | pest or weed control at 31 g/ha ([10]; 31 g ai/ha, scale 0 to 100 (0 no effect, 100 complete control), read-out: Plant response rating, Canarygrass): 0% | pest or weed control at 62 g/ha ([10]; 62 g ai/ha, scale 0 to 100 (0 no effect, 100 complete control), read-out: Plant response rating, Canarygrass): 5% | pest or weed control at 125 g/ha ([10]; 125 g ai/ha, scale 0 to 100 (0 no effect, 100 complete control), read-out: Plant response rating, Canarygrass): 10% | pest or weed control at 250 g/ha ([10]; 250 g ai/ha, scale 0 to 100 (0 no effect, 100 complete control), read-out: Plant response rating, Canarygrass): 25% | pest or weed control at 62 g/ha ([11]; 62 g ai/ha): 5% | pest or weed control at 16 g/ha ([11]; 16 g ai/ha): 0% | pest or weed control at 31 g/ha ([11]; 31 g ai/ha): 5% | pest or weed control at 125 g/ha ([11]; 125 g ai/ha): 10% | pest or weed control at 250 g/ha ([11]; 250 g ai/ha): 25% | plant injury at 16 g/ha ([12]; 16 g ai/ha, scale 0 (no effect) to 100 (complete control), read-out: Plant response rating, Oilseed Rape): 0% | plant injury at 31 g/ha ([12]; 31 g ai/ha, scale 0-100, read-out: Plant response rating, Oilseed Rape): 10% | plant injury at 62 g/ha ([12]; 62 g ai/ha, scale 0-100, read-out: Plant response rating, Oilseed Rape): 25% | plant injury at 125 g/ha ([12]; 125 g ai/ha, scale 0-100, read-out: Plant response rating, Oilseed Rape): 100% | plant injury at 250 g/ha ([12]; 250 g ai/ha, scale 0-100, read-out: Plant response rating, Oilseed Rape): 100%
